Laboratory results as given in patent US11473088B2, “Method of treating cancer and method of sensitizing cancer cells to the action of chemotherapeutic agents via growth hormone receptor antagonists or knock down” (Ohio University, priority 2016, dated 2022).
“Also recorded” adds a separate entry of the source. Where two headings read alike, the source gives them in different places. One block for each molecule: values may come before it.

Tests used:
[1] = test system: MALME-3M cells; test: ABC transporter RNA (RT-qPCR) following drug treatment; type: cell-based, human; settings: for Efflux Pumps (expression level change, p < 0.05): ABC-transporter pumps with significantly down-regulated RNA expressions: 24 hr. drug exposure, GHR-siRNA vs scr-siRNA transfected
Description: (§1) Transfection was performed using siLentFect lipid reagent (Biorad #170-3360, Hercules, Calif.) following the manufacturer's protocol. […] Media was changed after 24 hours. RNA levels were analyzed 48 hours post transfection while protein levels were analyzed at 60 hours post-transfection. For drug treatment, drugs at the specified concentrations noted above were added to the cells 48 hours post-transfection and treated for 24 hours prior to quantitation of RNA expressions.
(§2) RNA extraction, RT-qPCR, and protein extraction were performed as described in Example 1, above.

[2] = test system: MDA-MB-435 cells; test: as above; type: cell-based, human; settings: 24 hr. drug exposure, GHR-siRNA vs scr-siRNA transfected
Description: as §1, §2

[3] = test system: SK-MEL-28 cells; test: as above; type: cell-based, human; settings: for Efflux Pumps (expression level change, p < 0.05): ABC-transporter pumps with significantly down-regulated RNA expressions: 24 hr. drug exposure, GHR-siRNA vs scr-siRNA transfected
Description: as §1, §2

[4] = test system: SK-MEL-5 cells; test: as above; type: cell-based, human; settings: 24 hr. drug exposure, GHR-siRNA vs scr-siRNA transfected
Description: as §1, §2

[5] = test system: MDA-MB-435 cells; test: as above; type: cell-based, human; settings: 24 hr sub-EC50 drug, 50 ng/mL hGH
[6] = test system: SK-MEL-5 cells; test: as above; type: cell-based, human
[7] = test system: four melanoma cell lines; test: Cell proliferation / EC50 determination; settings: read-out: EC50 ranges for the four melanoma cell lines
Description: (§4) A 1% (w/v) resazurin (Sigma-Aldrich #R7017) solution in 1× PBS was made and filter-sterilized. The final concentration of resazurin in the assay was 0.004%. Inside the proliferating cells, mildly fluorescent blue resazurin is reduced to a bright pink fluorescent product called resorufin (stable for 4 hours), which allows for a quantitative measure of the percentage of proliferating cells. In all cases, cells were incubated at 37° C. in 5% CO2 for 45-60 min. for adequate sensitivity of detection. Briefly, cells were seeded at 10,000 cells/cm^2 into 96-well plates and transfected as described above. The resazurin assay was performed 60 hours after transfection (unless specified otherwise) and resorufin absorbance was measured at 570 nm (reference wavelength=600 nm) using Spectramax250 (Molecular Devices, Sunnyvale, Calif.) and SoftmaxPro software.
More specifically, SK-MEL-28 cells (FIG. 8A, panel 1), MALME-3M cells (FIG. 8A, panel 2), MDA-MB-435 cells (FIG. 8A, panel 3), and SK-MEL-5 cells (FIG. 8A, panel 4) were treated with increasing doses of hGH for 48 hr. and cell proliferation was estimated using a resazurin-based metabolic assay.
For treatment of melanoma cells, the following five anti-tumor compounds were obtained from the sources mentioned: cisplatin (Calbiochem #232120, Darmstadt, Germany), doxorubicin (Sigma Aldrich #D-1515, St. Louis, Mo.), oridonin (Sigma-Aldrich #O-9639, St. Louis, Mo.), Paclitaxel (Sigma-Aldrich #C-7191), and vemurafenib/PLX4032 (ApexBio #A-3004, Houston, Tex.). […] In the subsequent experiments, the following drug concentrations were used unless specified otherwise: cisplatin (0.5 μM), doxorubicin (10 nM), oridonin (0.5 μM), paclitaxel (1 nM), vemurafenib (2 nM). Treatments were performed for 24 hours starting 48 hours post-transfection with siRNA.

[8] = test system: SK-MEL-28 cells; test: RT-qPCR time course after doxorubicin addition; type: cell-based, human; settings: 188 nM doxorubicin
Description: (§3) Following treatments, cells were lysed, and RNA extraction was performed using IBI Tri-isolate kit (IBI), following manufacturer's protocol. RT-qPCR was performed as described previously.

[9] = test system: SK-MEL-28 cells; test: EC50 of doxorubicin (cell viability); type: cell-based; settings: Homo sapiens, Example 3, read-out: EC50 of doxorubicin against SK-MEL-28 cells
Description: Cell viability, following treatments, was performed using Invitrogen's PrestoBlue cell viability assay system. As described previously, it is a resazurin based assay which is reduced to resorufin (absorption at 570 nm) by the reducing environment of metabolically viable cells. It was performed in a 96-well system as described previously.

[10] = test system: MALME-3M cells; test: Cell proliferation (resazurin) assay; type: cell-based, human; settings: Homo sapiens, EC50 levels (cisplatin 10 μM, paclitaxel 5 nM), 24 hr, with and without siRNA mediated KD of GHR
Description: For hGH treatment, 16 hours after seeding (or 24 hours post-transfection), the cells were serum-starved for 2 hours in serum-free growth media, and hGH (phosphate buffered saline was used as control where applicable) was added at the noted concentrations (0-, 5-, 50-, and 150 ng/ml). Cells were subsequently incubated for 24 hours before evaluating RNA levels. Recombinant hGH was purchased from Antibodies Online (#ABIN2017921, Atlanta, Ga.).
On the other hand, a pronounced drop in proliferation levels in all the cell lines was seen when GHR was knocked down. […] Cell proliferation was estimated using resazurin-based metabolic assay. […] Averages of at least four independent experiments performed in quadruplicate were taken [*, p<0.05, Students t-test]. The results may indicate that human melanoma cells utilize GH-GHR interaction to drive aggressive tumor phenotypes.
To determine this, and referring now to FIGS. 35A-35D, changes in amounts of calcein retained inside cells following treatment with calcein-AM ester was analyzed by the fluorescence readout from intracellular calcein. Increased abundance of transporter pumps is reflected by decreased levels of intracellular calcein. […] Assays were performed 48 hr. post-transfection with either scr-siRNA or GHR-siRNA. […] SK-MEL-28 (FIG. 35C) and MALME-3M (FIG. 35D) cells were exposed to DMSO (vehicle), or 10 um cisplatin (Cis), or 5 nM paclitaxel (Pac) for 24 hr. Treatments were done 48 hr. post-transfection with either scr-siRNA (scr) or GHR-siRNA (GHR). Mean of three independent experiments performed in triplicate was taken. [*, p<0.05, Students t test, n=3]

[11] = test system: SK-MEL-28 cells; test: Cell proliferation (resazurin) assay; type: cell-based; settings: Homo sapiens, EC50 levels (cisplatin 10 μM, paclitaxel 5 nM), 24 hr, with and without siRNA mediated KD of GHR
Description: as §4

[12] = test system: B16F10 mouse melanoma cells; test: ABC-transporter RNA in bGH treated cells (RT-qPCR); type: cell-based
Description: as §3
GH upregulates ABC-transporter expression in mouse melanoma B16F10 cells in vitro and in vivo: B16F10 mouse melanoma cells were treated with 50 or 500 ng/mL bGH for 6, 24, 48 or 72 hr and the changes in the RNA levels of specific multidrug exporter pumps were analyzed over time and GH dose. […] RNA extracted from B16F10 tumors grown in GHRKO or bGH mice were analyzed for the above ABC-transporters. In bGH mice, the tumor cells and resulting tumors were exposed in vivo to high endogenous GH and high IGF-1; while in GHRKO mice, the tumor cells and resulting tumors were exposed in vivo to high GH but low IGF1.

[13] = 24-hour drug, presence vs absence of 50 ng/mL GH
[14] = 24 hr sub-EC50 drug, 50 ng/mL hGH

EC50 [9]: 188 nM | EC50 ([7]; Homo sapiens): 25 to 100 nM
Molecule: COc1cccc2c1C(=O)c1c(O)c3c(c(O)c1C2=O)C[C@@](O)(C(=O)CO)C[C@@H]3O[C@H]1C[C@H](N)[C@H](O)[C@H](C)O1 [doxorubicin]
ABCC2 RNA expression on drug exposure in presence of GH [1, 13]: increase | ABCG1 RNA expression on drug exposure in presence of GH [1, 13]: increase | ABCB8 RNA level in response to drug [1, 14]: significant upregulation | ABCG1 RNA level in response to drug [1, 14]: surged | Efflux Pumps (expression level change, p < 0.05): ABC-transporter pumps with significantly down-regulated RNA expressions [1]: ABCB8, ABCC1, ABCG1, ABCG2 | Efflux Pumps (expression level change, p < 0.05): ABC-transporter pumps with significantly down-regulated RNA expressions [2]: ABCB1, ABCB5, ABCC2, ABCG1 | ABCB1 RNA expression on drug exposure in presence of GH [3, 13]: upregulation | ABCB8 RNA expression on drug exposure in presence of GH [3, 13]: upregulation | ABCB5 RNA level in response to drug [3, 14]: significantly upregulated | ABCG1 RNA level in response to drug [3, 14]: surged | ABCG2 RNA level in response to drug [3, 14]: significantly upregulated | Efflux Pumps (expression level change, p < 0.05): ABC-transporter pumps with significantly down-regulated RNA expressions [3]: ABCB8, ABCC1, ABCG1, ABCG2 | Efflux Pumps (expression level change, p < 0.05): ABC-transporter pumps with significantly down-regulated RNA expressions [4]: ABCB1, ABCB8, ABCG2 | rise in ABCB1 RNA ([8]; 12-hr): 4 fold | rise in ABCG1 RNA ([8]; 12-hr): 8 fold | transcript levels of CDH2, VIM and SNAI1 ([8]; 12-hr after addition): increased significantly | GER levels (RNA) ([8]; by 24-hr): concomitant rise | rise in autocrine GH transcript ([8]; by 24-hr): > 2 fold | RNA levels of ABCB8, ABCC1 and ABCC4 drug efflux pumps ([8]; end of 24 hr): significantly higher levels | increase in CDH2 transcript ([8]; end of 24 hr): > 3.5 fold | increase in SNAI1 transcript ([8]; end of 24 hr): > 2 fold | reduction in the epithelial marker CDH1/E-cadherin ([8]; end of 24 hr): > 8 fold | ABCB5 RNA level in response to drug [5]: significantly upregulated | ABCB8 RNA level in response to drug [5]: significant upregulation | ABCB5 RNA expression on drug exposure in presence of GH [6, 13]: increase | ABCB8 RNA level in response to drug [6, 14]: significant upregulation | ABCG2 RNA level in response to drug [6, 14]: significantly upregulated

EC50 ([7]; Homo sapiens): 2 to 8 nM
Molecule: CC(=O)O[C@H]1C(=O)[C@@]2(C)[C@H]([C@H](OC(=O)c3ccccc3)[C@]3(O)C[C@H](OC(=O)[C@H](O)[C@@H](NC(=O)c4ccccc4)c4ccccc4)C(C)=C1C3(C)C)[C@]1(OC(C)=O)CO[C@@H]1C[C@@H]2O [paclitaxel, Paclitaxel]
inhibition at 0.005 µM [10]: > 90% | inhibition at 0.005 µM [11]: > 90% | ABCB8 RNA level in response to drug [1, 14]: significant upregulation | ABCC2 RNA level in response to drug [1, 14]: significantly increased | Efflux Pumps (expression level change, p < 0.05): ABC-transporter pumps with significantly down-regulated RNA expressions [1]: ABCB8, ABCC1, ABCG1 | Efflux Pumps (expression level change, p < 0.05): ABC-transporter pumps with significantly down-regulated RNA expressions [2]: ABCB5, ABCB8, ABCG1, ABCG2 | ABCG2 RNA expression on drug exposure in presence of GH [3, 13]: upregulation | ABCB5 RNA level in response to drug [3, 14]: significantly upregulated | ABCC1 RNA level in response to drug [3, 14]: particularly upregulated | ABCC2 RNA level in response to drug [3, 14]: significantly increased | ABCG1 RNA level in response to drug [3, 14]: surged | ABCG2 RNA level in response to drug [3, 14]: significantly upregulated | Efflux Pumps (expression level change, p < 0.05): ABC-transporter pumps with significantly down-regulated RNA expressions [3]: ABCB5, ABCC1, ABCG1, ABCG2 | Efflux Pumps (expression level change, p < 0.05): ABC-transporter pumps with significantly down-regulated RNA expressions [4]: ABCB8, ABCC1, ABCC2 | ABCG1 RNA level in response to drug [5]: surged | ABCB5 RNA expression on drug exposure in presence of GH [6, 13]: increase | ABCB8 RNA level in response to drug [6, 14]: significant upregulation | ABCC1 RNA level in response to drug [6, 14]: particularly upregulated | ABCC2 RNA level in response to drug [6, 14]: significantly increased

More lines, now with the values behind:

Molecule: N.N.[Cl][Pt][Cl] [cisplatin]
ABCB8 RNA expression on drug exposure in presence of GH [1, 13]: increase | Efflux Pumps (expression level change, p < 0.05): ABC-transporter pumps with significantly down-regulated RNA expressions [1]: ABCB1 | Efflux Pumps (expression level change, p < 0.05): ABC-transporter pumps with significantly down-regulated RNA expressions [2]: ABCB1, ABCB8, ABCC2, ABCG1,; also recorded: ABCG2 | ABCB1 RNA level in response to drug [3, 14]: Significant upregulation | ABCB5 RNA level in response to drug [3, 14]: significantly upregulated | ABCG1 RNA level in response to drug [3, 14]: surged | Efflux Pumps (expression level change, p < 0.05): ABC-transporter pumps with significantly down-regulated RNA expressions [3]: ABCB1, ABCB5, ABCB8, ABCG1 | Efflux Pumps (expression level change, p < 0.05): ABC-transporter pumps with significantly down-regulated RNA expressions [4]: ABCB1, ABCC1, ABCC2, ABCG2 | ABCB1 RNA level in response to drug [5]: Significant upregulation | ABCC2 RNA level in response to drug [5]: significantly increased | ABCG1 RNA level in response to drug [5]: surged | ABCG2 RNA level in response to drug [5]: significantly upregulated | ABCB5 RNA expression on drug exposure in presence of GH [6, 13]: increase | ABCB8 RNA expression on drug exposure in presence of GH [6, 13]: increase | ABCG2 RNA expression on drug exposure in presence of GH [6, 13]: increase | EC50 [7]: 3000 to 15000 nM

Molecule: C=C1C(=O)[C@]23[C@H](O)[C@H]1CC[C@H]2[C@@]12CO[C@]3(O)[C@@H](O)[C@@H]1C(C)(C)CC[C@@H]2O [oridonin]
EC50 ([7]; Homo sapiens): 2000 to 8000 nM

Molecule: CCCS(=O)(=O)Nc1ccc(F)c(C(=O)c2c[nH]c3ncc(-c4ccc(Cl)cc4)cc23)c1F [vemurafenib]
EC50 ([7]; Homo sapiens): 2 to 20 nM

B1: bGH: growth hormone (bGH) added at 50 or 500 ng/mL to B16F10 mouse melanoma cells (protein, UniProt P01246 27-217, looked up)
Somatotropin: AFPAMSLSGLFANAVLRAQHLHQLAADTFKEFERTYIPEGQRYSIQNTQVAFCFSETIPAPTGKNEAQQKSDLELLRISLLLIQSWLGPLQFLSRVFTNSLVFGTSDRVYEKLKDLEEGILALMRELEDGTPRAGQILKQTYDKFDTNMRSDDALLKNYGLLSCFRKDLHKTETYLRVMKCRRFGEASCAF
RNA expression of Abcb1, Abcg1 and Abcg2 ([12]; 50 and 500 ng/mL bGH, 24, 48, and 72 hr): significantly higher RNA expression | levels of Abcb8, Abcc1, Abcc2, and Abcc4 vs untreated controls ([12]; any dose or time-point in vitro): not significantly different
